# Source: patent US20240408130A1, “Combination of Silicon and Magnesium for the Prevention and Treatment of Muscle Cramps” (Bio Minerals NV, priority 2019, published 2024)
# Values joined by “and” are separate entries in the source; they are usually repeats but may differ in a detail not shown here. Equal values may be shown once. Where a name gives a salt, the structure may show the parent alone.
# How the values were obtained:
# muscle cramps [1] = conditions: cited from earlier work
# muscle cramps [2] = assay: Case reports of patients with muscle cramps given magnesium alone or Biosil plus Promagnor (Examples 1-7); type: in vivo, human; conditions: patient, recurrent skeletal muscle cramps for 23 years; magnesium salt alone, 450 mg per day
# Excerpt: A patient had recurrent muscle cramps during a period of 23 years. Muscle cramps occurred in skeletal muscles in hands, lower arms and legs, as well as in intercostal muscles. […] Muscle cramps occurred during the day as well as during the night, at a frequency of several cramps per day. As a consequence, the muscle cramps prohibited working as a doctor and further prohibited swimming or any other sport. […] This ineffective result is consistent with the conclusions of Garrison (supra) and Young (supra), that magnesium supplementation is not effective in the treatment of muscle cramps.
# The patient thereafter switched to a therapy comprising on a daily basis 10 mg stabilized silicic acid, wherein the silicic acid was in the form of orthosilicic acid and/or oligomers. The stabilizer was choline, which was administered at a daily dose of 200 mg. This combination is sold as Biosil® and is commercially available from Bio Minerals N.V., Destelbergen, Belgium. Use was made of the solid form of Biosil®. Two capsules per day were administered. The magnesium dose was 450 mg, and was in the form of magnesium phosphate, magnesium citrate, or magnesium bicarbonate. It was a dosage form of magnesium commercially supplied as Promagnor™ by Merck Consumer Healthcare nv, Overijse, Belgium. […]
# muscle cramps [3] = assay: Cross-over trial in patients with frequent muscle cramps, cramp frequency recorded daily in a diary (Example 8); type: in vivo, human
# Description: Female and male patients (age 33 to 86 years) experiencing frequent muscle cramps participated in a cross-over trial. The design of the cross-over trial is as follows: • Period 1:2 weeks orally 400 mg Mg/day (magnesium citrate), • Period 2:2 weeks orally 400 mg Mg/day+10 mg Si/day (magnesium citrate and choline-stabilized orthosilicic acid), • Period 3:2 weeks orally 200 mg Mg/day+5 mg Si/day (magnesium citrate and choline-stabilized orthosilicic acid). • Parameters: patients recorded the frequency of cramps daily in a diary.
# muscle cramps [4] = assay: Comparative trial in 11 patients with frequent muscle cramps, cramp frequency recorded daily in a diary (Example 9); type: in vivo, human
# Description: Seven female and 4 male patients (age 27 to 86 years, mean age 56 years) experiencing frequent muscle cramps participated in a comparative trial with the following design: • Period 1: During 1 week 11 patients either • (a) continued with their oral magnesium supplement (6 patients), or • (b) changed from their oral magnesium treatment (2 patients) to an oral magnesium supplement of 180 mg Mg/day (magnesium malate), or • (c) changed from “no magnesium” pretreatment (3 patients) to an oral magnesium supplement of 180 mg Mg/day (magnesium malate). • One patient had taken quinine sulfate prior to period 1. • Period 2: all patients (n=11) took 4 weeks 360 mg Mg/day (magnesium malate)+10 mg Si/day (choline-stabilized orthosilicic acid, ch-OSA®) • Parameters: patients recorded daily the frequency of cramps in a diary.
compound,measurement,setting,value
NCC1(CC(=O)O)CCCCC1 [Gabapentin],effect on symptom scores,"muscle cramps [1]; Class I clinical study, versus placebo",no difference was found between treatment and placebo with respect to any symptom score
COc1ccc([C@@H]2Sc3ccccc3N(CCN(C)C)C(=O)[C@@H]2OC(C)=O)cc1 [diltiazem hydrochloride],effect on intensity of cramps,muscle cramps [1]; Class II study,no effect on the intensity of cramps
O=S(=O)([O-])[O-].[Mg+2] [magnesium sulphate],"effect on number of cramps, severity, duration, sleep disturbance","muscle cramps [1]; Class II study, 300 mg dose, versus placebo","not superior to placebo for number of cramps, severity, duration or sleep disturbance"
[Mg] [magnesium],effect on recurrent muscle cramps,muscle cramps [2],not effective and did not provide any relief or inhibition of the muscle cramps
same,conclusion on frequency of cramps,"muscle cramps [3]; magnesium alone versus combination with bioavailable silicon supplement, Example 8",not effective in reducing the frequency of cramps compared to the combination
same,Number of cramps Mean ± SE,"muscle cramps [4]; Week 1: own oral magnesium supplement or 180 mg Mg/day (magnesium malate), n=11",18.9 ± 7.4^
same,conclusion on relief of muscle cramps,"muscle cramps [4]; monotherapy of oral magnesium, Example 9",not effective in relieving muscle cramps
same,cramp prophylaxis,"muscle cramps [1]; Garrison 2012 Cochrane review of seven trials, older adults with skeletal muscle cramps",unlikely that magnesium supplementation provides a clinically meaningful cramp prophylaxis to older adults
same,effect on leg cramps in pregnancy,"muscle cramps [1]; Leal de Araújo 2020, oral magnesium supplementation during pregnancy",did not reduce the occurrence and frequency of episodes of leg cramps
CCN(CC)CCOC(=O)C(Cc1cccc2ccccc12)CC1CCCO1 (stereo not drawn) [naftidrofuryl oxalate],effect on cramps and sleep disturbance,muscle cramps [1]; literature study,"no effect on the mean number of cramps, number of nights with cramps or sleep disturbance"
C=C[C@H]1C[N@@]2CC[C@H]1C[C@H]2[C@H](O)c1ccnc2ccc(OC)cc12 [quinine],side effects,muscle cramps [1]; reported in the literature (Katzberg 2010; FDA alert 2012),common and serious side effects
same,effect on idiopathic leg cramps,"muscle cramps [1]; systematic reviews and randomized clinical trials (Young 2015), versus placebo",may reduce the frequency of idiopathic leg cramps at night compared to placebo
magnesium citrate [Mg],"cramps/day, individual patients","muscle cramps [3]; A: 2 weeks 400 mg Mg/day orally (magnesium citrate), patients 1-6, one value per patient",0.43 cramps/day (2×) and 1.07 cramps/day and 0.36 cramps/day and 1.79 cramps/day and 0.5 cramps/day
same,"cramps/day, Mean","muscle cramps [3]; A: 2 weeks 400 mg Mg/day orally, mean of 6 patients",0.76 cramps/day
same,effect on number of cramps,"muscle cramps [1]; Class II study, 900 mg",could not conclude that there was a significant improvement in the number of cramps
